# Experimental data from patent publication US4110327A, “2,3 Diketo-piperazinocarbonylamino alkanoic acids and derivatives” (Toyama Chemical Co., Ltd., priority 1974, dated 1978).
# How the values were obtained:
# [1] = Acute toxicity LD50 i.v. in mouse; conditions: in vivo, iv
# Source text: The present penicillins and cephalosporins have generally low toxicity.
# Proteus rettgeri = experiment: MIC against clinical isolates; assay type: cell-based; conditions: clinical isolate, unit assumed
# Proteus vulgaris = experiment: MIC against clinical isolates; assay type: cell-based; conditions: clinical isolate, unit assumed
# Proteus mirabilis = experiment: MIC against clinical isolates; assay type: cell-based; conditions: clinical isolate, unit assumed
# Staphylococcus aureus = experiment: MIC against clinical isolates; assay type: cell-based; conditions: unit assumed
# Salmonella typhi-murium = experiment: MIC against clinical isolates; assay type: cell-based; conditions: unit assumed
# Shigella flexneri = experiment: MIC against clinical isolates; assay type: cell-based; conditions: unit assumed
# Experimental: (§1) The minimum inhibitory concentrations (MIC) was determined by the plate method disclosed in "Chemotherapy" (Japan), Vol. 16, (1968), pages 98 - 99. The culture medium used was a Heart infusion agar (pH 7.4). The number of the cells per plate used in the inoculum as 10^4 (10^6 cells/ml).
# (§2) MIC was determined in the same manner as in the preceding paragraph (1).
# Shigella sonnei = experiment: MIC against clinical isolates; assay type: cell-based; conditions: unit assumed
# Experimental: as §1, §2
# Proteus vulgaris 3027 = experiment: MIC against standard strain, plate method; assay type: cell-based; conditions: Proteus vulgaris 3027, standard strain; unit assumed
# Outline: (§3)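 Heart infusion agar (pH 7.4) plates; inoculum 10^4 cells/plate (10^6 cells/ml suspension); MIC read by plate method.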
# Escherichia coli NIHJ = experiment: MIC against standard strain, plate method; assay type: cell-based; conditions: unit assumed
# Outline: as §3
# Klebsiella pneumoniae [2] = experiment: MIC against standard strain, plate method; assay type: cell-based; conditions: unit assumed
# Outline: as §3
# [3] = test system: Pseudomonas aeruginosa I.F.O.; experiment: MIC against standard strain, plate method; assay type: cell-based; conditions: unit assumed
# Outline: as §3
# [4] = test system: Staphylococcus aureus 209p; experiment: MIC against standard strain, plate method; assay type: cell-based; conditions: unit assumed
# Outline: as §3
# Escherichia coli = experiment: MIC against clinical isolates; assay type: cell-based; conditions: unit assumed
# Klebsiella pneumoniae [5] = experiment: MIC against clinical isolates; assay type: cell-based; conditions: unit assumed
# Salmonella typhi = experiment: MIC against clinical isolates; assay type: cell-based; conditions: unit assumed
# Pseudomonas aeruginosa = experiment: MIC against clinical isolates; assay type: cell-based; conditions: unit assumed
# Proteus morganii = experiment: MIC against clinical isolates; assay type: cell-based; conditions: clinical isolate, unit assumed
# β-lactamase = experiment: Resistant activity against β-lactamase, iodometric assay; assay type: biochemical, Pseudomonas aeruginosa GN 238; conditions: relative to Potassium Penicillin G = 100
# Experimental: (3) Resistant activity against β-lactamase, Pseudomonas aergionan GN 238:
# The resistant activity of each compound against β-lactamase was measured in the manner described below.
# β-Lactamase was prepared from Pseudomonas aeruginosa GN 238. This microorganism was cultured in 100 ml of a medium containing 2 g of yeast extract, 10 g of polypeptone, 2 g of glucose, 7 g of disodium hydrogen phosphate, 2 g of potassium dihydrogen phosphate, 1.2 g of ammonium sulfate and 0.4 g of magnesium sulfate, per liter, in a 500-ml Erlenmeyer flask for 6 hrs. at 37° C with shaking. The resulting cells were collected by centrifugation (5,000 r.p.m. × 10 min.), washed three times with 0.1 M phosphate buffer (pH 7.0). Subsequently, the cells were subjected to sonication (20 KHz, 20 min.) and then centrifuged at 15,000 r.p.m. for 60 min. By using the supernatant of enzyme fluid, the resistance of each compound against β-lactamase was determined by the iodometric assay method. Each numeral shown in Table 7 is a relative activity value calculated by assuming as 100 the activity of the control Potassium Penicillin G.
# [6] = clinical isolate GN (number not given; Table 5-3)
compound,measurement,setting,value
CCN1CCN(C(=O)N[C@@H](C(=O)N[C@@H]2C(=O)N3[C@@H]2SC(C)(C)[C@@H]3C(=O)O)c2ccccc2)C(=O)C1=O,LD50,[1],> 5000 mg/kg
"CCCCN1CCN(C(=O)N[C@@H](C(=O)N[C@@H]2C(=O)N3[C@@H]2SC(C)(C)[C@@H]3C(=O)O)c2ccccc2)C(=O)C1=O (single isomer, unassigned) [compound 39]",MIC,Proteus rettgeri,6.25 µg/mL
same,MIC,Proteus vulgaris,< 0.4 µg/mL
same,MIC,Proteus mirabilis,< 0.4 µg/mL
same,MIC,Staphylococcus aureus; clinical isolate F-1,6.25 µg/mL
same,MIC,Staphylococcus aureus; clinical isolate F-2,1.57 µg/mL
same,MIC,Staphylococcus aureus; clinical isolate F-3,1.57 µg/mL
same,MIC,Staphylococcus aureus; clinical isolate F-4,6.25 µg/mL
same,MIC,Staphylococcus aureus; clinical isolate F-5,> 200 µg/mL
same,MIC,Staphylococcus aureus; clinical isolate MS 8588,1.57 µg/mL
same,MIC,Staphylococcus aureus; clinical isolate MS 8596,1.57 µg/mL
same,MIC,Staphylococcus aureus; clinical isolate MS 8619,0.79 µg/mL
same,MIC,Staphylococcus aureus; clinical isolate MS 8684,3.13 µg/mL
same,MIC,Staphylococcus aureus; clinical isolate MS 8713,3.13 µg/mL
same,MIC,Salmonella typhi-murium; clinical isolate SL 858,0.79 µg/mL
same,MIC,Salmonella typhi-murium; clinical isolate SL 2136,100 µg/mL
same,MIC,Shigella flexneri; clinical isolate JS 11215,25 µg/mL
same,MIC,Shigella flexneri; clinical isolate JS 11839,0.79 µg/mL
same,MIC,Shigella sonnei; clinical isolate JS 11232,25 µg/mL
same,MIC,Shigella sonnei; clinical isolate JS 11755,1.57 µg/mL
same,MIC,Proteus vulgaris 3027,0.4 µg/mL
same,MIC,Escherichia coli NIHJ,< 0.1 µg/mL
same,MIC,Klebsiella pneumoniae [2],1.57 µg/mL
same,MIC,[3],6.25 µg/mL
same,MIC,[4],0.4 µg/mL
same,MIC,Escherichia coli; clinical isolate GN 3435,0.79 µg/mL
same,MIC,Escherichia coli; clinical isolate GN 3452,0.79 µg/mL
same,MIC,Escherichia coli; clinical isolate GN 3465,25 µg/mL
same,MIC,Escherichia coli; clinical isolate GN 3481,1.57 µg/mL
same,MIC,Escherichia coli; clinical isolate GN 3611,> 200 µg/mL
same,MIC,Escherichia coli; clinical isolate K-1,1.57 µg/mL
same,MIC,Escherichia coli; clinical isolate K-2,1.57 µg/mL
same,MIC,Escherichia coli; clinical isolate K-3,> 200 µg/mL
same,MIC,Escherichia coli; clinical isolate K-4,0.79 µg/mL
same,MIC,Klebsiella pneumoniae [5]; clinical isolate GN 917,1.57 µg/mL
same,MIC,Klebsiella pneumoniae [5]; clinical isolate GN 3850,3.13 µg/mL
same,MIC,Klebsiella pneumoniae [5]; clinical isolate GN 4081,25 µg/mL
same,MIC,Klebsiella pneumoniae [5]; clinical isolate GN 4117,25 µg/mL
same,MIC,Salmonella typhi; clinical isolate SL 819,0.79 µg/mL
same,MIC,Salmonella typhi; clinical isolate SL 2169,0.79 µg/mL
same,MIC,Pseudomonas aeruginosa; clinical isolate GN 82,3.13 µg/mL
same,MIC,Pseudomonas aeruginosa; clinical isolate GN 163,3.13 µg/mL
same,MIC,Pseudomonas aeruginosa; clinical isolate GN 221,3.13 µg/mL
same,MIC,Pseudomonas aeruginosa; clinical isolate GN 376,6.25 µg/mL
same,MIC,Pseudomonas aeruginosa; clinical isolate GN 383,6.25 µg/mL
same,MIC,Pseudomonas aeruginosa; clinical isolate GN 1035,12.5 µg/mL
same,MIC,Pseudomonas aeruginosa; clinical isolate GN 1091,3.13 µg/mL
same,MIC,Pseudomonas aeruginosa; clinical isolate GN 2565,12.5 µg/mL
same,MIC,Pseudomonas aeruginosa; clinical isolate GN 2987,3.13 µg/mL
same,MIC,Pseudomonas aeruginosa; [6],6.25 µg/mL
same,MIC,Pseudomonas aeruginosa; clinical isolate S-1,12.5 µg/mL
same,MIC,Pseudomonas aeruginosa; clinical isolate S-2,12.5 µg/mL
same,MIC,Pseudomonas aeruginosa; clinical isolate S-3,25 µg/mL
same,MIC,Pseudomonas aeruginosa; clinical isolate S-4,12.5 µg/mL
same,MIC,Proteus morganii,< 0.4 µg/mL
same,Relative activity,β-lactamase,15%
"CCCCCCN1CCN(C(=O)N[C@@H](C(=O)N[C@@H]2C(=O)N3[C@@H]2SC(C)(C)[C@@H]3C(=O)O)c2ccccc2)C(=O)C1=O (single isomer, unassigned) [compound 46]",MIC,Proteus rettgeri,3.13 µg/mL
same,MIC,Proteus vulgaris,< 0.4 µg/mL
same,MIC,Proteus mirabilis,< 0.4 µg/mL
same,MIC,Staphylococcus aureus; clinical isolate F-1,6.25 µg/mL
same,MIC,Staphylococcus aureus; clinical isolate F-3,0.79 µg/mL
same,MIC,Staphylococcus aureus; clinical isolate F-4,6.25 µg/mL
same,MIC,Staphylococcus aureus; clinical isolate F-5,> 200 µg/mL
same,MIC,Staphylococcus aureus; clinical isolate MS 8596,3.13 µg/mL
same,MIC,Staphylococcus aureus; clinical isolate MS 8619,< 0.4 µg/mL
same,MIC,Staphylococcus aureus; clinical isolate MS 8713,6.25 µg/mL
same,MIC,Salmonella typhi-murium; clinical isolate SL 858,< 0.4 µg/mL
same,MIC,Salmonella typhi-murium; clinical isolate SL 2136,50 µg/mL
same,MIC,Shigella flexneri; clinical isolate JS 11215,6.25 µg/mL
same,MIC,Shigella flexneri; clinical isolate JS 11839,0.79 µg/mL
same,MIC,Shigella sonnei; clinical isolate JS 11232,12.5 µg/mL
same,MIC,Shigella sonnei; clinical isolate JS 11755,0.79 µg/mL
same,MIC,Proteus vulgaris 3027,0.4 µg/mL
same,MIC,Escherichia coli NIHJ,< 0.1 µg/mL
same,MIC,Klebsiella pneumoniae [2],0.4 µg/mL
same,MIC,[3],6.25 µg/mL
same,MIC,[4],0.2 µg/mL
same,MIC,Escherichia coli; clinical isolate GN 3435,< 0.4 µg/mL
same,MIC,Escherichia coli; clinical isolate GN 3452,0.79 µg/mL
same,MIC,Escherichia coli; clinical isolate GN 3465,6.25 µg/mL
same,MIC,Escherichia coli; clinical isolate GN 3481,3.13 µg/mL
same,MIC,Escherichia coli; clinical isolate GN 3611,> 200 µg/mL
same,MIC,Escherichia coli; clinical isolate K-1,0.79 µg/mL
same,MIC,Escherichia coli; clinical isolate K-2,0.79 µg/mL
same,MIC,Escherichia coli; clinical isolate K-3,50 µg/mL
same,MIC,Escherichia coli; clinical isolate K-4,< 0.4 µg/mL
same,MIC,Klebsiella pneumoniae [5]; clinical isolate GN 917,0.79 µg/mL
same,MIC,Klebsiella pneumoniae [5]; clinical isolate GN 4081,12.5 µg/mL
same,MIC,Klebsiella pneumoniae [5]; clinical isolate GN 4117,12.5 µg/mL
same,MIC,Salmonella typhi; clinical isolate SL 819,1.57 µg/mL
same,MIC,Salmonella typhi; clinical isolate SL 2169,0.79 µg/mL
same,MIC,Pseudomonas aeruginosa; clinical isolate GN 82,6.25 µg/mL
same,MIC,Pseudomonas aeruginosa; clinical isolate GN 163,6.25 µg/mL
same,MIC,Pseudomonas aeruginosa; clinical isolate GN 221,12.5 µg/mL
same,MIC,Pseudomonas aeruginosa; clinical isolate GN 376,25 µg/mL
same,MIC,Pseudomonas aeruginosa; clinical isolate GN 383,25 µg/mL
same,MIC,Pseudomonas aeruginosa; clinical isolate GN 1035,50 µg/mL
same,MIC,Pseudomonas aeruginosa; clinical isolate GN 1091,12.5 µg/mL
same,MIC,Pseudomonas aeruginosa; clinical isolate GN 2565,12.5 µg/mL
same,MIC,Pseudomonas aeruginosa; clinical isolate GN 2987,6.25 µg/mL
same,MIC,Pseudomonas aeruginosa; [6],12.5 µg/mL
same,MIC,Pseudomonas aeruginosa; clinical isolate S-1,50 µg/mL
same,MIC,Pseudomonas aeruginosa; clinical isolate S-2,50 µg/mL
same,MIC,Pseudomonas aeruginosa; clinical isolate S-3,50 µg/mL
same,MIC,Pseudomonas aeruginosa; clinical isolate S-4,50 µg/mL
same,MIC,Proteus morganii,< 0.4 µg/mL
same,Relative activity,β-lactamase,12%
